# Values quoted from earlier work as cited in publication PMC3238097 (Journal of the American Chemical Society, 2011).
substance,measurement,value
naphthalene-diphenylalanine-glucosamine,hydrogel formation,fails to form hydrogel properly
